Results reported in patent US20230165836A1, “ALPHA-2 ADRENERGIC RECEPTOR AGONISTS FOR THE TREATMENT OF CANCER” (UNIVERSITÉ CATHOLIQUE DE LOUVAIN, priority 2020, published 2023).
“Also recorded” adds a separate entry of the source. Like-named read-outs stand apart in the source and are kept apart here.

Assays:
[1] = tested on: myelofibrosis induced by romiplostim; settings: romiplostim 1 mg/kg s.c. days 1, 8, 15, 5 mg/kg i.p. daily for two weeks from day 8, wildtype mice
Description: 8-week female C57BL/6 J wild-type and Adra2a KO mice were administered saline or 1 mg/kg of romiplostim by a subcutaneous injection into the neck skin on days 1, 8 and 15. Clonidine or guanabenz were administrated i.p. at a dose of 5 mg/kg daily for two weeks starting from day 8. Mice were dissected on day 22 and peripheral blood was drawn by cardiac puncture, the platelet concentration was measured by Cell Counter Analyzer MS9-5V.

[2] = tested on: CT26 colon cancer; test: CT26 colon cancer tumor growth (FIGS. 15-16); format: in vivo, C57BL/6J mice; settings: CT26 colon cancer, FIGS. 15A, 16A
From the text: Tumor infiltration of CD8+cells evaluated at the day of sacrifice by FACS (FIG. 15B). Tumor growth of CT26 colon cancer in NSG mice treated with PBS (Control), clonidine, clonidine mixed with yohimbine, or yohimbine alone (FIG. 15C). FIGS. 16A-C is a set of curves and histograms showing the tumor growth of CT26 colon cancer in C57BL/6J mice treated with PBS (Control, circles), guanabenz (diamonds), guanabenz mixed with yohimbine (light grey inverted triangles), or yohimbine alone (dark grey inverted triangles) (FIG. 16A); the tumor infiltration of CD8+ cells evaluated at the day of sacrifice by FACS (FIG. 16B); and the tumor growth of CT26 colon cancer in NSG mice treated with PBS (Control), guanabenz, guanabenz mixed with yohimbine, or yohimbine alone (FIG. 16C). […] For evaluation of yohimbine on the effect of clonidine and guanabenz, the mice were randomized into different groups when tumors size arrived around 100 mm^3 and received daily injections of guanabenz (5 mg/kg, i.p.), yohimbine (10 mg/kg), a mix of guanabenz (5 mg/kg, i.p.) and yohimbine (10 mg/kg, i.p.), clonidine (5 mg/kg, i.p.), a mix of clonidine (5 mg/kg, i.p.) and yohimbine (10 mg/kg, i.p.) or vehicle control.

[3] = tested on: fibrosarcoma; test: Tumor model: fibrosarcoma; format: in vivo, mice; settings: fibrosarcoma (FIG. 22H, 23H)
From the text: (§1) FIGS. 23A-H is a set of curves showing the tumor growth of mice treated with PBS (Control, circles) or guanabenz (GBZ, triangles) in different tumor models: such as mammary gland tumor (FIG. 23A), hepatocellular carcinoma (FIG. 23B), T cell lymphoma (FIG. 23C), lung cancer (FIG. 23D), myeloma (FIG. 23E), mammary adenocarcinoma (FIG. 23F), renal cancer (FIG. 23G) and fibrosarcoma (FIG. 23H).

[4] = tested on: immune-resistant autochthonous melanoma tumors (TiRP); test: TiRP melanoma with adoptive cell transfer (ACT) of P1A-specific CD8+T cells; format: in vivo, TiRP mice; settings: 5 mg/kg
From the text: TiRP mice have been created by crossing Ink4a/Are^flox/flox mice with mice carrying a transgenic construct controlled by the tyrosinase promoter and driving the expression of H-Ras ^12V and Trapl a which encodes a MAGE-type tumor antigen P1A; the promoter is separated from the coding region by a stop cassette made of a floxed self-deleting CreER (Huijbers et al., 2006, Cancer Res 66, 3278-3286). Those mice were backcrossed to a B10.D2 background and bred to homozygosity. TCRP1A mice heterozygous for the H-2Ld/P1A35-43-specific TCR transgene were kept on the B10.D2;Rag1^−/− background (Shanker et al., 2004, J Immunol 172, 5069-5077). BALB/c mice were used in tumor transplantation experiments. TiRP-derived T429.11 transplanted melanoma model: T429.11 clone was derived from an induced Amela TiRP tumor referred to as T429. It was cloned from the T429 induced melanoma primary tumor line. Two million of T429.11 tumor cells were injected subcutaneously into recipient mice for tumor establishment (Zhu et al., 2017, Nat Commun. 10; 8(1):1404). Adra2a tm1Bkk mice (Strain Name: B6.129-Adra2a tm1Bkk /J, # 004367) were obtained from Jackson Laboratory (Bar Harbor, Me., USA).
A fresh solution of 40H-Tamoxifen was prepared by dissolving 40H-Tamoxifen (Imaginechem®) in 100% ethanol and mineral oil (ratio 1:9) followed by 30 min sonication, and injected subcutaneously (2 mg/200 uL per mouse) in the neck area of gender-matched 7 weeks old TiRP mice. Tumor appearance was monitored daily and tumors were measured three times/week. Tumor volume (in mm^3) was calculated by the following formula: Volume=width^2×length/2.
For the adoptive cell transfer (ACT), P1A-specific (TCRP1A) CD8+T cells were isolated from spleens and lymph nodes of TCRP1A mice as described hereinabove, and stimulated in vitro by co-culture with irradiated (10,000 rads) L1210.P1A.B7-1 cells (Gajewski et al., 1995, J Immunol 154, 5637-5648) at 1:2 ratio (0.5×10^5 CD8+T cells and 10^5 L1210.P1A.B7-1 cells per well in 48-well plates) in IMDM (GIBCO®) containing 10% fetal bovine serum supplemented with L-arginine (0.55 mM, Merck®), L-asparagine (0.24 mM, Merck®), glutamine (1.5 mM, Merck®), beta-mercaptoethanol (50 μM, Sigma Aldrich®), 50 U mL^−1 penicillin and […] mL^−1 streptomycin (Life Technologies®). Four days later, TCRP1A CD8+T cells were purified on a Lymphoprep gradient (StemCell®) and 10^7 living cells were injected intravenously in 200 μL PBS in TiRP-tumor bearing mice on the day of randomization.
TiRP-tumor bearing mice received adoptive cell transfer (ACT) of 10^7 P1A-specific activated CD8+T cells and daily injections of vehicle control, clonidine (5 mg/kg, i.p.), or clonidine (5 mg/kg, i.p.) combined with phentolamine (5 mg/kg, i.p.), when the tumor size was around 500 mm^3, until the day of sacrifice. Tumor size was monitored every 2 days. Mice were sacrificed when the tumor in control group reached around 2,000 mm^3.
TiRP-tumor bearing mice received adoptive cell transfer (ACT) of 10^7 of P1A-specific activated CD8+T cells. Daily injections of 5 mg/kg i.p. of romifidine or clonidine were thus administered from the day of the ACT, when the tumor size was around 500 mm^3, until the day of sacrifice. As shown on FIGS. 5A-B, following romifidine or clonidine administration, tumor infiltration of CD8+T cells was increased. […]

[5] = tested on: T cell lymphoma; test: Tumor model: T cell lymphoma; format: in vivo, mice; settings: T cell lymphoma (FIG. 22C, 23C)
From the text: as §1

Clc1cccc(Cl)c1N=C1NCCN1 [clonidine]
platelet (PLT) counts [1]: significantly reduces the platelet (PLT) counts | platelet (PLT) counts ([1]; listed as Clonidine): reduces the platelet count | tumor growth [2]: inhibited CT26 colon cancer tumor growth | tumor growth [3]: strong tumor inhibition | tumor infiltration of CD8+T cells (%CD8+T cells among total CD45+T cells) ([4]; TiRP mice with ACT, 5 mg/kg i.p. daily from day of ACT, tumor size around 500 mm^3): increase of tumor infiltration of CD8+T cells; also recorded: increased | tumor growth, combined with ACT ([4]; TiRP mice, ACT of 10^7 P1A-specific CD8+T cells, 5 mg/kg i.p. daily): strongly sensitized immune-resistant autochthonous melanoma tumors (TiRP) to adoptive cell transfer (ACT); also recorded: efficiently control the growth; also recorded: inhibited the tumor growth | tumor growth [5]: strong tumor inhibition
